For orientation: IC50 means the point on the concentration scale where inhibition reaches its midpoint.

T1 sequence (P14902 whole entry): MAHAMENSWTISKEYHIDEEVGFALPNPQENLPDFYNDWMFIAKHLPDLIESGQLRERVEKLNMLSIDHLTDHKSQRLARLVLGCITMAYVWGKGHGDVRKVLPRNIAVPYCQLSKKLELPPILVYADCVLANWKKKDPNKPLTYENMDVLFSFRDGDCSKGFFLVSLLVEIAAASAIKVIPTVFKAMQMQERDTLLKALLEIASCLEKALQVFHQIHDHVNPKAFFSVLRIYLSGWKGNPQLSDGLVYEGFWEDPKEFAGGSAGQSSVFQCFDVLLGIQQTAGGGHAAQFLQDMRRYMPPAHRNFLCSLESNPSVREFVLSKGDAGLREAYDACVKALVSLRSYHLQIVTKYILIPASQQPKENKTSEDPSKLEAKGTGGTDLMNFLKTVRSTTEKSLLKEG

The assay concerns the target T1, IDO (Homo sapiens, UniProt P14902).
T1 construct: endogenous in cells; host or cells: HeLa cells stimulated with recombinant human interferon-gamma
The experiment in a line: IDO Cell-Based NEK Green Assay (NFK Green, N-formyl kynurenine level). Particulars: Hela cells, 1 mM L-Tryptophan, 100 ng/mL recombinant human interferon-gamma, 2 days, NFK Green fluorescence. The protocol: IDO Cell-Based NEK Green Assay
Materials: RPMI 1640 (phenol red free) (Invitrogen Cat. No. 11835030), Fetal Bovine Serum (Invitrogen Cat. No. 10099141), Penicillin-Streptomycin (Invitrogen Gibco Cat. No. 15140-122), Cellular assay kit (NTRC, Cat. No. NTRC-GSCell-1K), DMSO (Sigma, Cat. No. D2650), 384 wells_compound plate (Greiner, Cat. No. 781280), 384 wells_assay plate (Greiner, Cat. No. 781091)
The concentrations of test compounds varied from 5 μM to 0.76 nM with 3-fold dilution, 10 points, in duplicates.
Hela cells were seeded at 8,000 cells per well with RPMI/phenol red free media containing 10% FBS in a 384-well tissue culture plate. Mixture of compounds and 1 mM L-Tryptophan were added to cells; and then the recombinant human interferon-gamma was added at the final concentration of 100 ng/mL to activate IDO signaling. The cells were incubated for 2 days in 37° C. incubator with 5% CO2. After that, NFK Green was used to detect the N-formyl kynurenine level by following the commercial kit instruction. The fluorescent signal was measured by Envision plate Reader (excitation, 400/25; emission, 510/20). Curves are fit by XLFIT5 as % inhibition vs. log [compound concentration] using a 4 parameters logistic model 205.
Select compounds prepared as described above were assayed according to the biological procedures described herein.
Turning to `CCS(=N)(=N)CCNc1nonc1/C(=N/O)Nc1ccc(F)c(C#N)c1` [Example 42, (Z)-N-(3-cyano-4-fluorophenyl)-4-{[2-(ethyldiimino-λ^6-sulfanyl)ethyl]amino}-N′-hydroxy-1,2,5-oxadiazole-3-carboximidamide], the IC50 came to 196 nM.
Turning to `CCS(=N)(=O)NCCCNc1nonc1/C(=N/O)Nc1ccc(F)c(Cl)c1` (stereo not drawn) [Example 27, (Z)-N-(3-chloro-4-fluorophenyl)-4-[(3-ethanesulfonoimidamidopropyl)amino]-N′-hydroxy-1,2,5-oxadiazole-3-carboximidamide], the IC50 turned out to be 16.5 nM.
Take `CCS(=O)(=NC)NCCNc1nonc1/C(=N/O)Nc1ccc(F)c(Br)c1` (stereo not drawn) [Example 33, (Z)-N-(3-bromo-4-fluorophenyl)-N′-hydroxy-4-((2-(N′-methylethylsulfonoamidimidamido)ethyl)amino)-1,2,5-oxadiazole-3-carboximidamide]: the IC50 is 23.9 nM.
Turning to `CN=S(=O)(CCCNc1nonc1/C(=N/O)Nc1ccc(F)c(Cl)c1)NC` (stereo not drawn) [Example 18, (Z)—N-(3-chloro-4-fluorophenyl)-4-((3-(N,N′-dimethylsulfamidimidoyl)propyl)amino)-N′-hydroxy-1,2,5-oxadiazole-3-carboximidamide], the concentration for half-maximal inhibition (IC50) amounted to 23.2 nM.
On to `CCS(=N)(=N)CCNc1nonc1/C(=N/O)Nc1ccc(F)c(Br)c1` [Example 34, (Z)-N-(3-bromo-4-fluorophenyl)-4-{[2-(ethyldiimino-λ^6-sulfanyl)ethyl]amino}-N′-hydroxy-1,2,5-oxadiazole-3-carboximidamide], for which the IC50 amounted to 9.7 nM.
On to `CCS(=N)(=O)NCCCNc1nonc1/C(=N/O)Nc1ccc(F)c(Br)c1` (stereo not drawn) [Example 24, (Z)-N-(3-bromo-4-fluorophenyl)-4-[(3-ethanesulfonoimidamidopropyl)amino]-N′-hydroxy-1,2,5-oxadiazole-3-carboximidamide], for which the IC50 was found to be 8.2 nM.
The same measure for `CS(C)(=O)=NCCCNc1nonc1/C(=N/O)Nc1ccc(F)c(Br)c1` [Example 30, (Z)-N-(3-bromo-4-fluorophenyl)-4-((3-((dimethyl(oxo)-λ^6-sulfanylidene)amino)propyl)amino)-N′-hydroxy-1,2,5-oxadiazole-3-carboximidamide]: 63.6 nM; for `CN=S(=O)(CCCNc1nonc1/C(=N/O)Nc1ccc(F)c(Br)c1)NC` (stereo not drawn) [Example 17, (Z)—N-(3-bromo-4-fluorophenyl)-4-((3-(N,N′-dimethylsulfamidimidoyl)propyl)amino)-N′-hydroxy-1,2,5-oxadiazole-3-carboximidamide]: 10.6 nM; for `C#Cc1cc(N/C(=N\O)c2nonc2NCCS(=N)(=N)CC)ccc1F` [Example 44, (Z)-4-{[2-(ethyldiimino-λ^6-sulfanyl)ethyl]amino}-N-(3-ethynyl-4-fluorophenyl)-N′-hydroxy-1,2,5-oxadiazole-3-carboximidamide]: 73.5 nM.
With `CS(C)(=O)=NCCCNc1nonc1/C(=N/O)Nc1ccc(F)c(Cl)c1` [Example 31, (Z)-N-(3-chloro-4-fluorophenyl)-4-((3-((dimethyl(oxo)-λ^6-sulfanylidene)amino)propyl)amino)-N′-hydroxy-1,2,5-oxadiazole-3-carboximidamide], the IC50 was determined as 112 nM.
As to `C#Cc1cc(N/C(=N\O)c2nonc2NCCNS(=N)(=O)CC)ccc1F` (stereo not drawn) [Example 21, (Z)-4-((2-(ethylsulfonoamidimidamido)ethyl)amino)-N-(3-ethynyl-4-fluorophenyl)-N′-hydroxy-1,2,5-oxadiazole-3-carboximidamide], the IC50 came to 16.3 nM.
Turning to `CC(C)S(=N)(=N)CCNc1nonc1/C(=N/O)Nc1ccc(F)c(Br)c1` [Example 38, (Z)-N-(3-bromo-4-fluorophenyl)-4-({2-[diimino(propan-2-yl)-λ^6-sulfanyl]ethyl}amino)-N′-hydroxy-1,2,5-oxadiazole-3-carboximidamide], the IC50 came out at 13.3 nM.

Values taken from patent US11168078B2, “Sulfoximine, sulfonimidamide, sulfondiimine and diimidosulfonamide compounds as inhibitors of indoleamine 2,3-dioxygenase” (Shanghai Fochon Pharmaceutical Co., Ltd., priority 2016, dated 2021).
